Source: US11634417B2 (Array BioPharma Inc., priority 2019, dated 2023)

Experiments:
full-length SHP2 = target: T1, full-length SHP2 (Homo sapiens, UniProt Q06124); test: SHP2 enzymatic assay (fluorescence intensity kinetic assay, DiFMUP hydrolysis); type: biochemical; conditions: 1 nM His6-tagged SHP2(2-527), 1 μM activating peptide, 50 μM DiFMUP; single assay or mean of multiple assays; read-out: Biological Example 1 IC50
T1 construct: 1 nM full-length SHP2 (His6-tagged SHP2(2-527), recombinantly expressed in E. coli and purified in-house); His6; made in house; host or cells: E. coli
T1 sequence (Q06124 2-527): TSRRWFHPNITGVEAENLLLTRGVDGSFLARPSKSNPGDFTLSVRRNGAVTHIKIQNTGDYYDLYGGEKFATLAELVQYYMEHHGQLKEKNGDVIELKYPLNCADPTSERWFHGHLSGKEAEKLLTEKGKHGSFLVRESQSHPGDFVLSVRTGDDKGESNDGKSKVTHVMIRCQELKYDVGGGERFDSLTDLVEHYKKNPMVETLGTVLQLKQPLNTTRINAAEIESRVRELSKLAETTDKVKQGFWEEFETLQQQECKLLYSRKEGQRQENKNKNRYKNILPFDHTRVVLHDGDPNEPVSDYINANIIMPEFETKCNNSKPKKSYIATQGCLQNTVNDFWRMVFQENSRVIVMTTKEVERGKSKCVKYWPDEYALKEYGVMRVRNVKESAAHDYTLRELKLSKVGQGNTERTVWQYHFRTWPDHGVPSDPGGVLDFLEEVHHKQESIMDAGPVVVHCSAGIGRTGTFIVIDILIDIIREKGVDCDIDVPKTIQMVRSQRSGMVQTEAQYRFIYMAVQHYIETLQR

[1] = tested on: ERK1/2 (Thr202/Tyr204) phosphorylation in KYSE520 cells; test: Cellular Phospho-p44/42 MAPK (Erk1/2) (Thr202/Tyr204) assay, In-Cell Western; type: cell-based; conditions: Homo sapiens, KYSE-520; KYSE520 cells, 1 hour incubation, pERK signal normalized to GAPDH; single assay or mean of multiple assays; read-out: Biological Example 2 IC50
In short: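 KYSE520 cells were treated 1 h with a 10-point 1:3 series (20 μM-1 nM, 0.5% DMSO), then fixed and stained for pERK1/2 (Thr202/Tyr204) and GAPDH by In-Cell Western. pERK signal was normalized to GAPDH per well; IC50 from 4-parameter fit.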

| Structure (SMILES) | IC50 (full-length SHP2) | IC50 [1] |
| --- | --- | --- |
| Nc1nccc(Sc2cnc(N3CCC4(CC3)Cc3ncsc3[C@H]4N)nn2)c1Cl [Example 58, (S)-1′-(6-((2-amino-3-chloropyridin-4-yl)thio)-1,2,4-triazin-3-yl)-4,6-dihydrospiro[cyclopenta[d]thiazole-5,4′-piperidin]-6-amine] | 39 nM | 1 nM |
| Cc1ccc2c(c1)CC1(CCN(c3ncc(Sc4ccnc(N)c4Cl)nn3)CC1)[C@H]2N [Example 59, (R)-1′-(6-((2-amino-3-chloropyridin-4-yl)thio)-1,2,4-triazin-3-yl)-5-methyl-1,3-dihydrospiro[indene-2,4′-piperidin]-1-amine] | 118 nM | 170 nM |
| Cc1ccc2c(n1)CC1(CCN(c3ncc(Sc4ccnc(N)c4Cl)nn3)CC1)[C@H]2N [Example 60] | 109 nM | 528 nM |
| Cc1nc2c(s1)[C@@H](N)C1(CCN(c3ncc(Sc4ccnc(N)c4Cl)nn3)CC1)C2 [Example 61, (S)-1′-(6-((2-amino-3-chloropyridin-4-yl)thio)-1,2,4-triazin-3-yl)-2-methyl-4,6-dihydrospiro[cyclopenta[d]thiazole-5,4′-piperidin]-6-amine] | 87 nM | 6 nM |
| Cc1ccc2c(n1)CC1(CCN(c3ncc(Sc4ccnc(N)c4Cl)nn3)CC1)[C@@H]2N [Example 62] | 39 nM | 6 nM |
| COc1cc2c(cc1Cl)[C@H](N)C1(CCN(c3ncc(Sc4ccnc(N)c4Cl)nn3)CC1)C2 [Example 63, (R)-1′-(6-((2-amino-3-chloropyridin-4-yl)thio)-1,2,4-triazin-3-yl)-6-chloro-5-methoxy-1,3-dihydrospiro[indene-2,4′-piperidin]-1-amine] | 254 nM | 665 nM |
| Nc1nccc(Sc2cnc(N3CCC4(CC3)Cc3ccc(Cl)cc3[C@H]4N)nn2)c1Cl [Example 64, (S)-1′-(6-((2-amino-3-chloropyridin-4-yl)thio)-1,2,4-triazin-3-yl)-6-chloro-1,3-dihydrospiro[indene-2,4′-piperidin]-1-amine] | 41 nM | 286 nM |
| Nc1nccc(Sc2cnc(N3CCC4(CC3)Cc3ncc(Cl)cc3[C@H]4N)nn2)c1Cl [Example 65, (S)-1′-(6-((2-amino-3-chloropyridin-4-yl)thio)-1,2,4-triazin-3-yl)-3-chloro-5,7-dihydrospiro[cyclopenta[b]pyridine-6,4′-piperidin]-5-amine] | 64 nM | 81 nM |
| N[C@@H]1c2ccccc2CC12CCN(c1ncc(Sc3n[nH]c4ccccc34)nn1)CC2 [Example 67, (S)-1′-(6-((1H-indazol-3-yl)thio)-1,2,4-triazin-3-yl)-1,3-dihydrospiro[indene-2,4′-piperidin]-1-amine] | 20 nM | 51 nM |
| N[C@@H]1c2ccccc2CC12CCN(c1ncc(Sc3c[nH]c4ccccc34)nn1)CC2 [Example 69, (S)-1′-(6-((1H-indol-3-yl)thio)-1,2,4-triazin-3-yl)-1,3-dihydrospiro[indene-2,4′-piperidin]-1-amine] | 19 nM | 170 nM |
| N[C@@H]1c2ccccc2CC12CCN(c1ncc(Sc3ccnc4c3CCN4)nn1)CC2 [Example 70, (S)-1′-(6-((2,3-dihydro-1H-pyrrolo[2,3-b]pyridin-4-yl)thio)-1,2,4-triazin-3-yl)-1,3-dihydrospiro[indene-2,4′-piperidin]-1-amine] | 36 nM | 9 nM |
| N[C@@H]1c2ccccc2CC12CCN(c1ncc(Sc3cnc4ccccn34)nn1)CC2 [Example 71, (S)-1′-(6-(imidazo[1,2-a]pyridin-3-ylthio)-1,2,4-triazin-3-yl)-1,3-dihydrospiro[indene-2,4′-piperidin]-1-amine] | 55 nM | 152 nM |
| Cn1ccc2c(Sc3cnc(N4CCC5(CC4)Cc4ccccc4[C@H]5N)nn3)ccnc21 [Example 73, (S)-1′-(6-((1-methyl-1H-pyrrolo[2,3-b]pyridin-4-yl)thio)-1,2,4-triazin-3-yl)-1,3-dihydrospiro[indene-2,4′-piperidin]-1-amine] | 32 nM | 6 nM |
| Nc1nccc(Sc2cnc(N3CCC4(CC3)Cc3nc(Cl)sc3C4N)nn2)c1Cl (stereo not drawn) [Example 76, 1′-(6-((2-amino-3-chloropyridin-4-yl)thio)-1,2,4-triazin-3-yl)-2-chloro-4,6-dihydrospiro[cyclopenta[d]thiazole-5,4′-piperidin]-6-amine] | 41 nM | 4 nM |
| Nc1nccc(Sc2cnc(N3CCC4(CC3)Oc3ncccc3[C@H]4N)nn2)c1Cl [Example 77] | 74 nM | 92 nM |
| N[C@@H]1c2ccccc2CC12CCN(c1ncc(-c3ccccc3)nn1)CC2 [Example 79, (S)-1′-(6-phenyl-1,2,4-triazin-3-yl)-1,3-dihydrospiro[indene-2,4′-piperidin]-1-amine] | 84 nM | 697 nM |
| N[C@@H]1c2ccccc2CC12CCN(c1ncc(-c3cccc(Cl)c3)nn1)CC2 [Example 80, (S)-1′-(6-(3-chlorophenyl)-1,2,4-triazin-3-yl)-1,3-dihydrospiro[indene-2,4′-piperidin]-1-amine] | 429 nM | 2990 nM |
| N[C@@H]1c2ccccc2CC12CCN(c1ncc(Oc3ccccc3)nn1)CC2 [Example 81, (S)-1′-(6-phenoxy-1,2,4-triazin-3-yl)-1,3-dihydrospiro[indene-2,4′-piperidin]-1-amine] | 4 nM | 8 nM |
| Nc1nccc(Sc2cnc(N3CCC4(CC3)Cc3c(Cl)cccc3[C@@H]4N)nn2)c1Cl [Example 82, (R)-1′-(6-((2-amino-3-chloropyridin-4-yl)thio)-1,2,4-triazin-3-yl)-4-chloro-1,3-dihydrospiro[indene-2,4′-piperidin]-1-amine] | 205 nM | 541 nM |
| N[C@@H]1c2ccccc2CC12CCN(c1ncc(Sc3ccnc(NCCO)c3Cl)nn1)CC2 [Example 83, (S)-2-((4-((3-(1-amino-1,3-dihydrospiro[indene-2,4′-piperidin]-1′-yl)-1,2,4-triazin-6-yl)thio)-3-chloropyridin-2-yl)amino)ethan-1-ol] | 46 nM | 3 nM |
| COc1ccc2c(c1)[C@@H](N)C1(CCN(c3ncc(Sc4ccnc(N)c4Cl)nn3)CC1)C2 [Example 84, (S)-1′-(6-((2-amino-3-chloropyridin-4-yl)thio)-1,2,4-triazin-3-yl)-6-methoxy-1,3-dihydrospiro[indene-2,4′-piperidin]-1-amine] | 24 nM | 2 nM |
